Data as given in US9216999B2, “Substituted pyrrolo[2,3-h][1,6]naphthyridines and compositions thereof as JAK inhibitors” (priority 2011, dated 2015).

Experiments:
[1] = target: JAK3 (Homo sapiens (Human), UniProt P52333); test: JAK3 enzyme assay (Assay Example^b 1)
[2] = target: JAK2 (Homo sapiens (Human), UniProt O60674); test: JAK2 enzyme assay (Assay Example^b 1)
[3] = target: Tyk2 (Homo sapiens (Human), UniProt P29597); test: Tyk2 enzyme assay (Assay Example^b 1)
[4] = target: JAK1 (Homo sapiens (Human), UniProt P23458); test: JAK1 enzyme assay (Assay Example^b 1)
[5] = IC50 (μM) JAK3, Table^b 80, ATP 100 μM
[6] = IC50 (μM) JAK2, Table^b 79, ATP 100 μM
[7] = IC50 (μM) TYK2, Table^b 79, ATP 100 μM
[8] = IC50 (μM) TYK2, Table^b 80, ATP 100 μM
[9] = IC50 (μM) JAK1, Table^b 78, ATP 100 μM

Chain of Tyk2 (P29597 whole entry): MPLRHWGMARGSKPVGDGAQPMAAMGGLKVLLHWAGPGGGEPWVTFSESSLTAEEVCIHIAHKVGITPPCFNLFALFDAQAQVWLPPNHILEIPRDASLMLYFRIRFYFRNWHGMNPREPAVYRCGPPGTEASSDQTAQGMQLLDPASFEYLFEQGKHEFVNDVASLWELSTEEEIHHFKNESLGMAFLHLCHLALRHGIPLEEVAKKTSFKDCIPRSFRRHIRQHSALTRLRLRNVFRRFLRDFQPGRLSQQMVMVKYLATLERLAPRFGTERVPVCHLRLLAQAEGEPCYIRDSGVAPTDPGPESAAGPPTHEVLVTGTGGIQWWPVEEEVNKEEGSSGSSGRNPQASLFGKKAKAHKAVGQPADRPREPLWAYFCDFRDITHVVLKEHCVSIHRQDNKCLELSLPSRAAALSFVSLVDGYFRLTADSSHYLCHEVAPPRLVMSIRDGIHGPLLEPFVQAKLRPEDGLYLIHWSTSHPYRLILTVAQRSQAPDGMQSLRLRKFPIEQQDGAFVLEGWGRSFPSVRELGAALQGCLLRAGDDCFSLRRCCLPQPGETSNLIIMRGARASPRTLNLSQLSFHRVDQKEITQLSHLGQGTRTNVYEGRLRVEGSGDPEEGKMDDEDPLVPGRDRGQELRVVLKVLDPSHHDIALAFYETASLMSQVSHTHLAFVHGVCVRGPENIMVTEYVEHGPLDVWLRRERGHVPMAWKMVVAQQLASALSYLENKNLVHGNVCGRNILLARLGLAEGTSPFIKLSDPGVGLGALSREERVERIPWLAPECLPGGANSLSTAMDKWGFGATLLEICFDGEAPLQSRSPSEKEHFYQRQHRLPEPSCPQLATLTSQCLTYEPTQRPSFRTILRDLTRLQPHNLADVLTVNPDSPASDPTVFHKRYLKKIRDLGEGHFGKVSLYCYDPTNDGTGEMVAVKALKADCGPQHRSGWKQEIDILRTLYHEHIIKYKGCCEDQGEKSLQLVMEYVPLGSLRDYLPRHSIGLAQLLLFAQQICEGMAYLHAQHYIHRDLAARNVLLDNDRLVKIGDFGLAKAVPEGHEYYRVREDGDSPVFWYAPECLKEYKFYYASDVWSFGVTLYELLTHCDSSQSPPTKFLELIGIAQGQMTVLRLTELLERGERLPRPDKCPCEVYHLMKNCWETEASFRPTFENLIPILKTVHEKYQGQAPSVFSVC
Chain of JAK3 (P52333 whole entry): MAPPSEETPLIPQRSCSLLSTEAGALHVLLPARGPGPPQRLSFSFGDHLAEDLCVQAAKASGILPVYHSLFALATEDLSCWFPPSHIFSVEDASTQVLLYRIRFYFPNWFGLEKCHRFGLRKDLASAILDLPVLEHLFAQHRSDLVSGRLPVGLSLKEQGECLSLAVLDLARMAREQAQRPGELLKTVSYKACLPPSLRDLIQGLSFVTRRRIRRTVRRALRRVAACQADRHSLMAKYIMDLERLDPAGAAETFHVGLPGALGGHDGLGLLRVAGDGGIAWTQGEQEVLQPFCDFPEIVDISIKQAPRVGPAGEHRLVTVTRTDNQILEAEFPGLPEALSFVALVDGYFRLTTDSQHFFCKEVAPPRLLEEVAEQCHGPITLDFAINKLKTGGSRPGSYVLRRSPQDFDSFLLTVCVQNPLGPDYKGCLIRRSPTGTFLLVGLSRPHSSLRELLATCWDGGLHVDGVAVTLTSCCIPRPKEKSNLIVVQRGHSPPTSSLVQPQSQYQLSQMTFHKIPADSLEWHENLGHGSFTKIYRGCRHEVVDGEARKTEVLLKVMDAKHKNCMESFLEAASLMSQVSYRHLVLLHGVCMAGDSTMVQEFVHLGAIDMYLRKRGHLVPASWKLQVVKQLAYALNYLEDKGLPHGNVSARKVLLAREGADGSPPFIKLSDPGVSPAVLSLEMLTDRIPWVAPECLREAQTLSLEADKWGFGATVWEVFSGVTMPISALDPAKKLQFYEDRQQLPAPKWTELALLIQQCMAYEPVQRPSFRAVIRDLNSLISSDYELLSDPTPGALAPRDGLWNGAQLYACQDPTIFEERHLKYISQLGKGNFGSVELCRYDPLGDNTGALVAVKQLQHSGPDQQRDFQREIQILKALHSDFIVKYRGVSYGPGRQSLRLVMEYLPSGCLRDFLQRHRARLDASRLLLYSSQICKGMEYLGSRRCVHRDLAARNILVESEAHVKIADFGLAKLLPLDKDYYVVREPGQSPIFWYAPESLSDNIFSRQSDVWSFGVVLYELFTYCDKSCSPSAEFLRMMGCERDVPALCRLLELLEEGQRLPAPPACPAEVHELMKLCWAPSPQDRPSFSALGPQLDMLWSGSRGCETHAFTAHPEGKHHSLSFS

| SMILES | IC50 ([1]; IC50 (μM) JAK3, ATP 100 μM) [µM] | IC50 [1, 5] [µM] | other results |
| --- | --- | --- | --- |
| CCC(C)CN1CCC(n2c(=O)[nH]c(=O)c3cnc4[nH]ccc4c32)CC1 (racemic) [compound 92] | > 1 | – | – |
| O=c1[nH]c(=O)n(C2C3CC4CC2CC(O)(C4)C3)c2c1cnc1[nH]ccc12 (stereo not shown) [compound 104] | 0.38 | – | IC50 ([2]; IC50 (μM) JAK2, ATP 100 μM): 0.046 µM; IC50 ([3]; IC50 (μM) TYK2, ATP 100 μM): 0.38 µM |
| O=c1[nH]c(=O)n(C2CCN(CC3CC3)CC2)c2c1cnc1[nH]ccc12 [compound 91] | > 1 | – | – |
| N#CC=CC1CCC(n2c(=O)[nH]c(=O)c3cnc4[nH]ccc4c32)CC1 (stereo not shown) [compound 103] | > 1 | – | – |
| C[C@@H]1CCN(C(=O)c2cccc(C(F)(F)F)c2)C[C@@H]1n1ccc(=O)c2cnc3[nH]ccc3c21 (racemic) [compound 31] | – | > 1 | – |
| CC(C#N)n1c(=O)c2cnc3[nH]ccc3c2n(C2CCCCC2)c1=O (racemic) [compound 146] | > 1 | – | – |
| O=c1ccn(C2CCN(Cc3ccc(Br)s3)CC2)c2c1cnc1[nH]ccc12 [compound 81] | – | 0.031 | – |
| O=C1NCc2cnc3[nH]ccc3c2N1C1CCCCC1 [compound 17] | – | – | IC50 ([1]; IC50 (μM) JAK3, Table^b 78, ATP 100 μM): 0.69 µM; IC50 [2, 6]: 0.02 µM; IC50 [3, 7]: 0.093 µM |
| O=c1ncc2cnc3[nH]ccc3c2n1C1CCCCC1 [compound 18] | – | – | IC50 [3, 7]: 0.25 µM |
| CN(C)C(=O)Cn1c(=O)c2cnc3[nH]ccc3c2n(C2CCCCC2)c1=O [compound 152] | 0.48 | – | – |
| O=c1[nH]c(=O)n(C2CCC(CN(CCO)Cc3ccccc3)CC2)c2c1cnc1[nH]ccc12 (stereo not shown) [compound 121] | > 1 | – | – |
| C[C@@H]1CCN(C2CCCC2)C[C@@H]1n1ccc(=O)c2cnc3[nH]ccc3c21 (racemic) [compound 47] | – | – | IC50 [3, 8]: > 1 µM |
| O=c1ccn(C2CCN(Cc3ccc(Cl)c(Cl)c3)CC2)c2c1cnc1[nH]ccc12 [compound 75] | – | > 1 | – |
| O=c1ccn(C2CCN(Cc3ccccc3)CC2)c2c1cnc1[nH]ccc12 [compound 54] | – | 0.47 | – |
| C[C@@H]1CCN(S(=O)(=O)c2cccc(C(F)(F)F)c2)C[C@@H]1n1ccc(=O)c2cnc3[nH]ccc3c21 (racemic) [compound 33] | – | – | IC50 ([2]; IC50 (μM) JAK2): 0.12 µM |
| O=S1(=O)C=CN(C2CCCCC2)c2c1cnc1[nH]ccc21 [compound 12] | – | – | IC50 [4, 9]: 0.13 µM; IC50 [3, 7]: > 1 µM |
| O=c1[nH]c(=O)n(C2CCN(Cc3ccc(C(F)(F)F)cc3)CC2)c2c1cnc1[nH]ccc12 [compound 52] | – | > 1 | – |
| O=CC1CCC(n2c(=O)[nH]c(=O)c3cnc4[nH]ccc4c32)CC1 (stereo not shown) [compound 133] | > 1 | – | IC50 ([4]; IC50 (μM) JAK1, ATP 100 μM): 0.012 µM; IC50 ([3]; IC50 (μM) TYK2, ATP 100 μM): 0.41 µM |
| c1cc2c3c(cnc2[nH]1)COCN3C1CCCCC1 [compound 2] | – | – | IC50 [4, 9]: 0.33 µM; IC50 [2, 6]: 1.9 µM |
| C[C@@H]1CCN(Cc2ccccc2)C[C@@H]1n1cc(Br)c(=O)c2cnc3[nH]ccc3c21 (racemic) [compound 24] | – | – | IC50 ([2]; IC50 (μM) JAK2): 0.74 µM |
| O=c1c2cnc3[nH]ccc3c2n(C2CCCCC2)c(=O)n1CCN1CCOCC1 [compound 142] | > 1 | – | – |
| O=c1ccn(C2CCN(Cc3ccc(Br)o3)CC2)c2c1cnc1[nH]ccc12 [compound 80] | – | 0.34 | IC50 ([2]; IC50 (μM) JAK2, Table^b 80, ATP 100 μM): 0.02 µM; IC50 [3, 8]: 0.24 µM |
| O=C(CC(F)(F)F)N1CCC(N2C(=O)NCc3cnc4[nH]ccc4c32)CC1 [compound 65] | – | 9.5 | IC50 [3, 8]: 2.9 µM |
| CO[C@H]1CC[C@H](n2ccc(=O)c3cnc4[nH]ccc4c32)CC1 [compound 70] | – | > 1 | – |
| O=c1c2cnc3[nH]ccc3c2n(C2CCCCC2)c(=O)n1C1CCNCC1 [compound 154] | > 1 | – | – |
| O=c1ccn(C2CCN(Cc3cnc(Br)s3)CC2)c2c1cnc1[nH]ccc12 [compound 83] | – | 0.62 | – |
| CN(C)CCn1c(=O)c2cnc3[nH]ccc3c2n(C2CCCCC2)c1=O [compound 153] | > 1 | – | – |
| CN(CC(F)(F)F)C[C@H]1CC[C@H](n2c(=O)[nH]c(=O)c3cnc4[nH]ccc4c32)CC1 [Synthetic Example^b 136, 1-(trans-4-{[Methyl(2,2,2-trifluoroethyl)amino]methyl}cyclohexyl)-1H-pyrrolo[3′,2′:5,6]pyrido[4,3-d]pyrimidine-2,4(3H,7H)-dione] | 0.75 | – | IC50 ([4]; IC50 (μM) JAK1, ATP 100 μM): 0.0032 µM |
